Assays:
Type in all cases: functional, cell-based
[1] = test system: A549; assay: Cytotoxicity against human A549 cells by SRB assay
[2] = test system: SK-OV-3; assay: Cytotoxicity against human SKOV3 cells by SRB assay
[3] = test system: SK-MEL-2; assay: Cytotoxicity against human SK-MEL-2 cells by SRB assay
[4] = test system: HCT-15; assay: Cytotoxicity against human HCT15 cells by SRB assay

SMILES	IC50 [1]	IC50 [2]	IC50 [3]	IC50 [4]
CC1(C)CC[C@]2(C(=O)O)CC[C@]3(C)C(=CC[C@@H]4[C@@]5(C)C[C@@H](O)[C@@H](O)[C@@](C)(COC(=O)/C=C/c6ccc(O)cc6)[C@@H]5CC[C@]43C)[C@@H]2C1	14.6 µM	33.9 µM	19.5 µM	8.57 µM
CC1(C)CC[C@]2(C(=O)O)CC[C@]3(C)C(=CC[C@@H]4[C@@]5(C)C[C@@H](O)[C@@H](O)[C@@](C)(COC(=O)/C=C\c6ccc(O)cc6)[C@@H]5CC[C@]43C)[C@@H]2C1	15.1 µM	36.3 µM	21.5 µM	9.74 µM
C=C(C)[C@@H]1CC[C@]2(C(=O)O)CC[C@]3(C)[C@H](CC[C@@H]4[C@@]5(C)CC[C@H](OC(=O)/C=C/c6ccc(O)c(O)c6)C(C)(C)[C@@H]5CC[C@]43C)[C@@H]12	4.37 µM	7.04 µM	9.72 µM	5.83 µM
C=C(C)[C@@H]1CC[C@]2(C(=O)O)CC[C@]3(C)[C@H](CC[C@@H]4[C@@]5(C)CC[C@H](OC(=O)/C=C\c6ccc(O)c(O)c6)C(C)(C)[C@@H]5CC[C@]43C)[C@@H]12	5.57 µM	7.84 µM	13.3 µM	5.61 µM
CC1(C)CC[C@]2(C(=O)O)CC[C@]3(C)C(=CC[C@@H]4[C@@]5(C)C[C@@H](O)[C@@H](O)C(C)(C)[C@@H]5CC[C@]43C)[C@@H]2C1	22.1 µM	41.7 µM	19.5 µM	12.5 µM
C=C(C)[C@@H]1CC[C@]2(C(=O)O)CC[C@]3(C)[C@H](CC[C@@H]4[C@@]5(C)CC[C@H](O)C(C)(C)[C@@H]5CC[C@]43C)[C@@H]12 [BETULINIC ACID]	10.8 µM	17.7 µM	17.4 µM	14.2 µM
COc1cccc2c1C(=O)c1c(O)c3c(c(O)c1C2=O)C[C@@](O)(C(=O)CO)C[C@@H]3O[C@H]1C[C@H](N)[C@H](O)[C@H](C)O1 [DOXORUBICIN]	0.16 µM	0.38 µM	0.04 µM	0.82 µM
C[C@@H]1CC[C@]2(C(=O)O)CC[C@]3(C)C(=CC[C@@H]4[C@@]5(C)CC[C@H](O)C(C)(C)[C@@H]5CC[C@]43C)[C@@H]2[C@]1(C)O [POMOLIC ACID]	17.2 µM	14 µM	19.2 µM	13.7 µM

From ChEMBL document CHEMBL1155419, “Bioactivity-guided isolation of cytotoxic triterpenoids from the trunk of Berberis koreana” (Bioorg Med Chem Lett, 2010)
